Laboratory results: ChEMBL document CHEMBL4033674, “Bivalent O-glycoside mimetics with S/disulfide/Se substitutions and aromatic core: Synthesis, molecular modeling and inhibitory activity on biomedically relevant lectins in assays of increasing physiological relevance” (Bioorg Med Chem, 2017)
The source made the active and inactive calls. No cut-off for these calls is given here.

How the values were obtained:
[1] = target: Galectin-3 (Homo sapiens) (UniProt P17931); assay: Inhibition of biotinylated chimera type galectin-3 in human Capan-1 cells after 30 mins by FACS analysis relative to control; format: cell-based
Chain of Galectin-3 (Homo sapiens) (P17931 whole entry): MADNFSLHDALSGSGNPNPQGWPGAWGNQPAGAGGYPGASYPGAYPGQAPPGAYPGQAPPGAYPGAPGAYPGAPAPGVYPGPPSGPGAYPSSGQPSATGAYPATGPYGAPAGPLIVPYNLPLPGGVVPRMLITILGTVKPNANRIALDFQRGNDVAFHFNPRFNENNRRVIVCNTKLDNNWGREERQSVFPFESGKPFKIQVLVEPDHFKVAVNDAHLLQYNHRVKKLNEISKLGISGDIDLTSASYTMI

Galectin-3 = Galectin-3 (Mus musculus, UniProt P16110); assay: Inhibition of galectin-3 in C57BL/6 mouse jejunum using SK-5100 as substrate incubated for 30 mins by VAA staining based microscopic analysis
Chain of Galectin-3 (P16110 whole entry): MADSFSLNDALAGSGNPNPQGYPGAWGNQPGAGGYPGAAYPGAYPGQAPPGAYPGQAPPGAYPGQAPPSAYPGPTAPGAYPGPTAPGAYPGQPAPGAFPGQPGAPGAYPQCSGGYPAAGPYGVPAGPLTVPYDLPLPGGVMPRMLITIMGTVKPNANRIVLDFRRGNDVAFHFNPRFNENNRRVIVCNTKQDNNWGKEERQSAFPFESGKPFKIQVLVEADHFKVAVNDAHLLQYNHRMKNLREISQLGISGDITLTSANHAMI

[2] = target: Galectin-1 (Homo sapiens) (UniProt P09382); assay: Inhibition of biotinylated proto type galectin-1 in human Capan-1 cells after 30 mins by FACS analysis relative to control; format: cell-based
Chain of Galectin-1 (Homo sapiens) (P09382 whole entry): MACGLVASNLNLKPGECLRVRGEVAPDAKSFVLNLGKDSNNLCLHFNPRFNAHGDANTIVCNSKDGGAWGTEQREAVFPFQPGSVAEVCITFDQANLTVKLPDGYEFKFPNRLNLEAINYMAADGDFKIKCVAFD

[3] = target: T1, Galectin-8 (Mus musculus) (UniProt Q9JL15); assay: Inhibition of galectin-8 in C57BL/6 mouse jejunum using SK-5100 as substrate incubated for 30 mins by VAA staining based microscopic analysis relative to free lactose
T1 sequence (whole entry): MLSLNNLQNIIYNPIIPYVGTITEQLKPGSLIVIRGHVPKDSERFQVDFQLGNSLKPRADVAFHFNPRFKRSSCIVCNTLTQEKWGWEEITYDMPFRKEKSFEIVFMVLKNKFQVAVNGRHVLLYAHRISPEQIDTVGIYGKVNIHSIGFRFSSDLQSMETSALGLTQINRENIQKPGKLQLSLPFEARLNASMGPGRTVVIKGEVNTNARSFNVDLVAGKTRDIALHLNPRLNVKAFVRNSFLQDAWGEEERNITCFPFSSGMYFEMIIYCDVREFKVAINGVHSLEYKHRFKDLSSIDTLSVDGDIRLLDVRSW

[4] = target: T2, Galectin-8 (Homo sapiens) (UniProt O00214); assay: Inhibition of biotinylated tandem repeat type galectin-8 in human Capan-1 cells after 30 mins by FACS analysis relative to control; format: cell-based
T2 sequence (whole entry): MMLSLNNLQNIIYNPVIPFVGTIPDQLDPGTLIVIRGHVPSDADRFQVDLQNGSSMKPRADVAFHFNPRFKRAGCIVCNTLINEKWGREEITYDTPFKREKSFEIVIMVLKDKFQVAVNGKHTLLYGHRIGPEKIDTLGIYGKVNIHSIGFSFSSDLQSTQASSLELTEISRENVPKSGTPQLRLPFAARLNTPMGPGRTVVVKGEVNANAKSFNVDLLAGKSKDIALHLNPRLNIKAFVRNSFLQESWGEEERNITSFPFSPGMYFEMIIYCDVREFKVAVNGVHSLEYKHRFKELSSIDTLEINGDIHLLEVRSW

[5] = target: Galectin-1 (Mus musculus) (UniProt P16045); assay: Inhibition of galectin-1 in C57BL/6 mouse jejunum using SK-5100 as substrate incubated for 30 mins by VAA staining based microscopic analysis relative to free lactose
Chain of Galectin-1 (Mus musculus) (P16045 whole entry): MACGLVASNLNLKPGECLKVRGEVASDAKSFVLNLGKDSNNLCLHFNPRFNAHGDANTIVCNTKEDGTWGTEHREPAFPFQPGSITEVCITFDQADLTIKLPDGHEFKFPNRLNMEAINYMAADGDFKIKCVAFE

[6] = Inhibition of lectin in C57BL/6 mouse kidney using SK-5100 as substrate incubated for 30 mins by VAA staining based microscopic analysis

| fold change (FC) [1] | fold change (FC) [2] | fold change (FC) [4] | Structure (SMILES) | also measured |
| --- | --- | --- | --- | --- |
|  |  |  | OC[C@H]1O[C@@H](O[C@H]2[C@H](O)[C@@H](O)[C@H](SCc3ccc(CS[C@@H]4O[C@H](CO)[C@@H](O[C@@H]5O[C@H](CO)[C@H](O)[C@H](O)[C@H]5O)[C@H](O)[C@H]4O)c4ccccc34)O[C@@H]2CO)[C@H](O)[C@@H](O)[C@H]1O | inhibition [1]: inactive; IC50 (Galectin-3): 50 µM; inhibition [2]: inactive; fold change (FC) [3]: 50; inhibition [4]: inactive |
|  |  |  | OC[C@H]1O[C@@H](O[C@H]2[C@H](O)[C@@H](O)[C@H](SSCc3ccc(CSS[C@@H]4O[C@H](CO)[C@@H](O[C@@H]5O[C@H](CO)[C@H](O)[C@H](O)[C@H]5O)[C@H](O)[C@H]4O)c4ccccc34)O[C@@H]2CO)[C@H](O)[C@@H](O)[C@H]1O | inhibition [1]: Active; IC50 (Galectin-3): 25 µM; inhibition [2]: Active; fold change (FC) [3]: 100; fold change (FC) [5]: 6; inhibition [4]: Active |
| 2.5 to 10 | 2.5 to 10 | 2.5 to 10 | OC[C@H]1O[C@@H]([Se]Cc2ccc(C[Se][C@@H]3O[C@H](CO)[C@H](O)[C@H](O)[C@H]3O)c3ccccc23)[C@H](O)[C@@H](O)[C@H]1O |  |
| 2.5 to 10 | 2.5 to 10 | 2.5 to 10 | OC[C@H]1O[C@@H]([Se]Cc2cccc(C[Se][C@@H]3O[C@H](CO)[C@H](O)[C@H](O)[C@H]3O)c2)[C@H](O)[C@@H](O)[C@H]1O |  |
| 2.5 to 10 | 2.5 to 10 | 2.5 to 10 | OC[C@H]1O[C@@H]([Se]Cc2cccc3c(C[Se][C@@H]4O[C@H](CO)[C@H](O)[C@H](O)[C@H]4O)cccc23)[C@H](O)[C@@H](O)[C@H]1O |  |
| 2.5 to 10 | 2.5 to 10 | 2.5 to 10 | OC[C@H]1O[C@@H]([Se]Cc2ccc3cc(C[Se][C@@H]4O[C@H](CO)[C@H](O)[C@H](O)[C@H]4O)ccc3c2)[C@H](O)[C@@H](O)[C@H]1O | IC50 [6]: 0.5 to 1 mM |
|  |  |  | O=C[C@H](O)[C@@H](O)[C@@H](O)[C@H](O)CO [GALACTOSE] | IC50 [6]: 5 mM |
| 2.5 to 10 | 2.5 to 10 | 2.5 to 10 | OC[C@H]1O[C@@H](SCc2ccc(CS[C@@H]3O[C@H](CO)[C@H](O)[C@H](O)[C@H]3O)c3ccccc23)[C@H](O)[C@@H](O)[C@H]1O |  |
| 2.5 to 10 | 2.5 to 10 | 2.5 to 10 | OC[C@H]1O[C@@H]([Se]Cc2ccc(C[Se][C@@H]3O[C@H](CO)[C@H](O)[C@H](O)[C@H]3O)cc2)[C@H](O)[C@@H](O)[C@H]1O |  |
| 2.5 to 10 | 2.5 to 10 | 2.5 to 10 | OC[C@H]1O[C@@H](SSCc2ccc(CSS[C@@H]3O[C@H](CO)[C@H](O)[C@H](O)[C@H]3O)c3ccccc23)[C@H](O)[C@@H](O)[C@H]1O | IC50 [6]: 0.5 to 1 mM |
| 2.5 to 10 | 2.5 to 10 | 2.5 to 10 | OC[C@H]1O[C@@H](SSCc2cccc3c(CSS[C@@H]4O[C@H](CO)[C@H](O)[C@H](O)[C@H]4O)cccc23)[C@H](O)[C@@H](O)[C@H]1O |  |
